Measurements published in patent US6653258B1 (priority 1987, dated 2003).
Read-outs that look alike come from different tables or passages of the source. Marks after values point to notes of the source that are not given here.

Key:
Erysiphe graminis = assay: Foliar fungal disease test on Erysiphe graminis, plants inoculated 24 hours before treatment (Table V); type: in vivo; design: key: 4: no disease; 3: trace −5% of disease on untreated plants; 6-25% of disease on untreated plants; 1: 26-59% of disease on untreated plants; 60-100% of disease on untreated plants
[1] = tested on: foliar fungal diseases of plants; type: in vivo; design: key to disease control grading, […] (VINE): 4: no disease; 3: trace −5% of disease on untreated plants; key to disease control grading, PUCCINIA RECONDITA (WHEAT) / disease control grading, VENTURIA INAEQUALIS (APPLE) / disease control grading, CERCOSPORA ARACHIDICOLA (PEANUT) / disease control grading, PH[…] (TOMATO) / disease control grading, P[…] (RICE): 4: no disease; 3: trace −5% of disease on untreated plants; 6-25% of disease on untreated plants; 1: 26-59% of disease on untreated plants; 60-100% of disease on untreated plants; conditions: for disease control grading, CERCOSPORA ARACHIDICOLA (PEANUT): Cercospora arachidicola on peanut; for disease control grading, P[…] (RICE): P[…] on rice; for disease control grading, PH[…] (TOMATO): Ph[…] on tomato; for disease control grading, PUCCINIA RECONDITA (WHEAT): Puccinia recondita on wheat; for disease control grading, VENTURIA INAEQUALIS (APPLE): Venturia inaequalis on apple; for disease control grading, […] (VINE): […] on vine
[2] = plants inoculated 24 hours before treatment
[3] = applied to soil (roots) and foliage one or two days before inoculation

Compound: CO/C=C(/C(=O)OC)c1ccccc1COc1cccc(C)c1 [164 (Table I)]
- disease control grading, ERYSIPHE GRAMINIS (BARLEY) (Erysiphe graminis; [2]): 4
- disease control grading, CERCOSPORA ARACHIDICOLA (PEANUT) [1, 3]: 4
- disease control grading, P[…] (RICE) [1, 3]: 4
- disease control grading, PH[…] (TOMATO) [1, 3]: 3 (trace −5% of disease on untreated plants)
- disease control grading, PUCCINIA RECONDITA (WHEAT) [1, 3]: 4
- disease control grading, VENTURIA INAEQUALIS (APPLE) [1, 3]: 4
- disease control grading, […] (VINE) [1, 3]: 4

Compound: CO/C=C(/C(=O)OC)c1ccccc1COc1cccc(Oc2cccc(Br)c2)c1 [183 (Table I)]
- disease control grading, ERYSIPHE GRAMINIS (BARLEY) (Erysiphe graminis; [2]): 4
- disease control grading, CERCOSPORA ARACHIDICOLA (PEANUT) [1, 3]: 4
- disease control grading, P[…] (RICE) [1, 3]: 3 (trace −5% of disease on untreated plants)
- disease control grading, PH[…] (TOMATO) [1, 3]: 4
- disease control grading, PUCCINIA RECONDITA (WHEAT) [1, 3]: 0 (60-100% of disease on untreated plants)
- disease control grading, VENTURIA INAEQUALIS (APPLE) [1, 3]: 4
- disease control grading, […] (VINE) [1, 3]: 4

Compound: CCCN(Cc1ccccc1/C(=C\OC)C(=O)OC)c1ccccc1 [4 (Table III)]
- disease control grading, ERYSIPHE GRAMINIS (BARLEY) (Erysiphe graminis; 25 ppm foliar spray only): 0* (60-100% of disease on untreated plants)
- disease control grading, CERCOSPORA ARACHIDICOLA (PEANUT) ([1]; 25 ppm foliar spray only): 0* (60-100% of disease on untreated plants)
- disease control grading, P[…] (RICE) ([1]; 25 ppm foliar spray only): 0* (60-100% of disease on untreated plants)
- disease control grading, PH[…] (TOMATO) ([1]; 25 ppm foliar spray only): 0* (60-100% of disease on untreated plants)
- disease control grading, PUCCINIA RECONDITA (WHEAT) ([1]; 25 ppm foliar spray only): 0* (60-100% of disease on untreated plants)
- disease control grading, VENTURIA INAEQUALIS (APPLE) ([1]; 25 ppm foliar spray only): 3* (trace −5% of disease on untreated plants)
- disease control grading, […] (VINE) ([1]; 25 ppm foliar spray only): 1* (26-59% of disease on untreated plants)

Compound: CO/C=C(/C(=O)OC)c1ccccc1COc1cccc(CO)c1 [178 (Table I)]
- disease control grading, ERYSIPHE GRAMINIS (BARLEY) (Erysiphe graminis; [2]): 0 (60-100% of disease on untreated plants)
- disease control grading, CERCOSPORA ARACHIDICOLA (PEANUT) [1, 3]: 3 (trace −5% of disease on untreated plants)
- disease control grading, P[…] (RICE) [1, 3]: 2 (6-25% of disease on untreated plants)
- disease control grading, PH[…] (TOMATO) [1, 3]: 2 (6-25% of disease on untreated plants)
- disease control grading, PUCCINIA RECONDITA (WHEAT) [1, 3]: 3 (trace −5% of disease on untreated plants)
- disease control grading, VENTURIA INAEQUALIS (APPLE) [1, 3]: 0 (60-100% of disease on untreated plants)
- disease control grading, […] (VINE) [1, 3]: 4

Compound: CO/C=C(/C(=O)OC)c1ccccc1COc1cccc(-c2cccc(OC)c2)c1 [172 (Table I)]
- disease control grading, ERYSIPHE GRAMINIS (BARLEY) (Erysiphe graminis; [2]): 4
- disease control grading, CERCOSPORA ARACHIDICOLA (PEANUT) [1, 3]: 4
- disease control grading, P[…] (RICE) [1, 3]: 0 (60-100% of disease on untreated plants)
- disease control grading, PH[…] (TOMATO) [1, 3]: 4
- disease control grading, PUCCINIA RECONDITA (WHEAT) [1, 3]: 4
- disease control grading, VENTURIA INAEQUALIS (APPLE) [1, 3]: 4
- disease control grading, […] (VINE) [1, 3]: 4

Compound: CO/C=C(/C(=O)OC)c1ccccc1COc1ccc(Cl)cc1Cl [43 (Table I)]
- disease control grading, ERYSIPHE GRAMINIS (BARLEY) (Erysiphe graminis; [2]): 4
- disease control grading, CERCOSPORA ARACHIDICOLA (PEANUT) [1, 3]: 4
- disease control grading, P[…] (RICE) [1, 3]: 4
- disease control grading, PH[…] (TOMATO) [1, 3]: 4
- disease control grading, PUCCINIA RECONDITA (WHEAT) [1, 3]: 4
- disease control grading, VENTURIA INAEQUALIS (APPLE) [1, 3]: 4
- disease control grading, […] (VINE) [1, 3]: 4

Compound: CO/C=C(/C(=O)OC)c1ccccc1COc1cccc([N+](=O)[O-])c1 [161 (Table I)]
- disease control grading, ERYSIPHE GRAMINIS (BARLEY) (Erysiphe graminis; [2]): 3 (trace −5% of disease on untreated plants)
- disease control grading, CERCOSPORA ARACHIDICOLA (PEANUT) [1, 3]: 3 (trace −5% of disease on untreated plants)
- disease control grading, P[…] (RICE) [1, 3]: 0 (60-100% of disease on untreated plants)
- disease control grading, PH[…] (TOMATO) [1, 3]: 1 (26-59% of disease on untreated plants)
- disease control grading, PUCCINIA RECONDITA (WHEAT) [1, 3]: 3 (trace −5% of disease on untreated plants)
- disease control grading, VENTURIA INAEQUALIS (APPLE) [1, 3]: 4
- disease control grading, […] (VINE) [1, 3]: 4

Compound: CO/C=C(/C(=O)OC)c1ccccc1COc1cccc(O)c1 [171 (Table I)]
- disease control grading, ERYSIPHE GRAMINIS (BARLEY) (Erysiphe graminis; [2]): 1 (26-59% of disease on untreated plants)
- disease control grading, CERCOSPORA ARACHIDICOLA (PEANUT) [1, 3]: 3 (trace −5% of disease on untreated plants)
- disease control grading, P[…] (RICE) [1, 3]: 0 (60-100% of disease on untreated plants)
- disease control grading, PH[…] (TOMATO) [1, 3]: 3 (trace −5% of disease on untreated plants)
- disease control grading, PUCCINIA RECONDITA (WHEAT) [1, 3]: 3 (trace −5% of disease on untreated plants)
- disease control grading, VENTURIA INAEQUALIS (APPLE) [1, 3]: 4
- disease control grading, […] (VINE) [1, 3]: 4

Compound: CO/C=C(/C(=O)OC)c1ccccc1COc1ccccc1Cl [157 (Table I)]
- disease control grading, ERYSIPHE GRAMINIS (BARLEY) (Erysiphe graminis; [2]): 4
- disease control grading, CERCOSPORA ARACHIDICOLA (PEANUT) [1, 3]: 4
- disease control grading, P[…] (RICE) [1, 3]: 4
- disease control grading, PH[…] (TOMATO) [1, 3]: 3 (trace −5% of disease on untreated plants)
- disease control grading, PUCCINIA RECONDITA (WHEAT) [1, 3]: 4
- disease control grading, VENTURIA INAEQUALIS (APPLE) [1, 3]: 4
- disease control grading, […] (VINE) [1, 3]: 4

Compound: CO/C=C(/C(=O)OC)c1ccccc1COc1c(Cl)cccc1Cl [44 (Table I)]
- disease control grading, ERYSIPHE GRAMINIS (BARLEY) (Erysiphe graminis; [2]): 4
- disease control grading, CERCOSPORA ARACHIDICOLA (PEANUT) [1, 3]: 3 (trace −5% of disease on untreated plants)
- disease control grading, P[…] (RICE) [1, 3]: 2 (6-25% of disease on untreated plants)
- disease control grading, PH[…] (TOMATO) [1, 3]: 3 (trace −5% of disease on untreated plants)
- disease control grading, PUCCINIA RECONDITA (WHEAT) [1, 3]: 4
- disease control grading, VENTURIA INAEQUALIS (APPLE) [1, 3]: 4
- disease control grading, […] (VINE) [1, 3]: 4

Compound: CO/C=C(/C(=O)OC)c1ccccc1COc1ccccc1Br [24 (Table I)]
- disease control grading, ERYSIPHE GRAMINIS (BARLEY) (Erysiphe graminis; [2]): 4
- disease control grading, CERCOSPORA ARACHIDICOLA (PEANUT) [1, 3]: 4
- disease control grading, P[…] (RICE) [1, 3]: 4
- disease control grading, PH[…] (TOMATO) [1, 3]: 4
- disease control grading, PUCCINIA RECONDITA (WHEAT) [1, 3]: 4
- disease control grading, VENTURIA INAEQUALIS (APPLE) [1, 3]: 4
- disease control grading, […] (VINE) [1, 3]: 4

Compound: CO/C=C(/C(=O)OC)c1ccccc1COc1cc(C(F)(F)F)ccn1 [174 (Table I)]
- disease control grading, ERYSIPHE GRAMINIS (BARLEY) (Erysiphe graminis; [2]): 4
- disease control grading, CERCOSPORA ARACHIDICOLA (PEANUT) [1, 3]: 4
- disease control grading, P[…] (RICE) [1, 3]: 0 (60-100% of disease on untreated plants)
- disease control grading, PH[…] (TOMATO) [1, 3]: 4
- disease control grading, PUCCINIA RECONDITA (WHEAT) [1, 3]: 4
- disease control grading, VENTURIA INAEQUALIS (APPLE) [1, 3]: 4
- disease control grading, […] (VINE) [1, 3]: 4

Compound: CO/C=C(/C(=O)OC)c1ccccc1COc1cccc(C=O)c1 [175 (Table I)]
- disease control grading, ERYSIPHE GRAMINIS (BARLEY) (Erysiphe graminis; [2]): 1 (26-59% of disease on untreated plants)
- disease control grading, CERCOSPORA ARACHIDICOLA (PEANUT) [1, 3]: 1 (26-59% of disease on untreated plants)
- disease control grading, P[…] (RICE) [1, 3]: 0 (60-100% of disease on untreated plants)
- disease control grading, PH[…] (TOMATO) [1, 3]: 4
- disease control grading, PUCCINIA RECONDITA (WHEAT) [1, 3]: 3 (trace −5% of disease on untreated plants)
- disease control grading, VENTURIA INAEQUALIS (APPLE) [1, 3]: 4
- disease control grading, […] (VINE) [1, 3]: 4

Compound: CO/C=C(/C(=O)OC)c1ccccc1COc1ccc(Cl)c(Cl)c1 [45 (Table I)]
- disease control grading, ERYSIPHE GRAMINIS (BARLEY) (Erysiphe graminis; [2]): 3 (trace −5% of disease on untreated plants)
- disease control grading, CERCOSPORA ARACHIDICOLA (PEANUT) [1, 3]: 4
- disease control grading, P[…] (RICE) [1, 3]: 4
- disease control grading, PH[…] (TOMATO) [1, 3]: 4
- disease control grading, PUCCINIA RECONDITA (WHEAT) [1, 3]: 4
- disease control grading, VENTURIA INAEQUALIS (APPLE) [1, 3]: 4
- disease control grading, […] (VINE) [1, 3]: 4

Compound: CO/C=C(/C(=O)OC)c1ccccc1COc1ccccn1 [67 (Table I)]
- disease control grading, ERYSIPHE GRAMINIS (BARLEY) (Erysiphe graminis; [2]): 4
- disease control grading, CERCOSPORA ARACHIDICOLA (PEANUT) [1, 3]: 4
- disease control grading, P[…] (RICE) [1, 3]: 4
- disease control grading, PH[…] (TOMATO) [1, 3]: 4
- disease control grading, PUCCINIA RECONDITA (WHEAT) [1, 3]: 4
- disease control grading, VENTURIA INAEQUALIS (APPLE) [1, 3]: 4
- disease control grading, […] (VINE) [1, 3]: 4

Compound: CO/C=C(/C(=O)OC)c1ccccc1COc1cccc(F)c1 [155 (Table I)]
- disease control grading, ERYSIPHE GRAMINIS (BARLEY) (Erysiphe graminis; [2]): 4
- disease control grading, CERCOSPORA ARACHIDICOLA (PEANUT) [1, 3]: 4
- disease control grading, P[…] (RICE) [1, 3]: 4
- disease control grading, PH[…] (TOMATO) [1, 3]: 4
- disease control grading, PUCCINIA RECONDITA (WHEAT) [1, 3]: 4
- disease control grading, VENTURIA INAEQUALIS (APPLE) [1, 3]: 4
- disease control grading, […] (VINE) [1, 3]: 4
